Values of other authors as cited in patent US10219515B2, “Agrochemical adjuvant containing 2-oxo-1,3-dioxolan-4 carboxylates” (BASF SE, priority 2014, dated 2019).
Where two headings read alike, the source gives them in different places.

Compound: O=C(O)CNCP(=O)(O)O [glyphosate]
- acid dissociation constant pKa (amine): ~11.0
- acid dissociation constant pKa (carboxylic acid): ~2.3
- acid dissociation constant pKa (first phosphonic acid): ~0.8
- acid dissociation constant pKa (second phosphonic acid): ~6.0
